Source: PubChem BioAssay (NCI)
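Each compound was tested at five concentrations against cells in 96-well plates for 48 hours. The concentration for full growth arrest is given as TGI.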 Where a SMILES comes first, the peptide text is derived from it. [ ]: non-standard residue; d: D form. The star is where a group is joined. NMeV = CN[C@H](C(=O)O)C(C)C; X29 = COc1ccc(CN*)c(OC)c1; Octanoyl = CCCCCCCC(=O)*; dNMeA = CN[C@H](C)C(=O)O

Tests used:
Test in all cases: NCI-60 cell line screen, 48 h
[1] = tested on: PC-3 prostate
[2] = tested on: HOP-62 NSCLC
[3] = tested on: NCI-H460 lung
[4] = tested on: HS 578T breast
[5] = tested on: LOX IMVI melanoma
[6] = tested on: COLO 205 colon
[7] = tested on: OVCAR-5 ovarian
[8] = tested on: MDA-N
[9] = tested on: IGROV1 ovarian
[10] = tested on: KM12 colon
[11] = tested on: RXF 393 renal
[12] = tested on: SK-MEL-2 melanoma
[13] = tested on: MDA-MB-435
[14] = tested on: NCI-H226 lung
[15] = tested on: SK-MEL-28 melanoma
[16] = tested on: BT-549 breast

SMILES	TGI [1] [µM]	TGI [2] [µM]	TGI [3] [µM]	TGI [4] [µM]	TGI [5] [µM]	TGI [6] [µM]	TGI [7] [µM]	TGI [8] [µM]	TGI [9] [µM]	TGI [10] [µM]	TGI [11] [µM]	TGI [12] [µM]	TGI [13] [µM]	TGI [14] [µM]	TGI [15] [µM]	TGI [16] [µM]
C=C(Br)CNC(=O)Nc1ccc(Cl)c(Cl)c1	48	48.1	> 100	54.3	43.6	30.6	92.4	> 100	36.6	34.4	40	32.8	53.2	67.4	> 100	–
N#CC1C(=O)NC23CCCCC2C1c1ccccc1O3 (configuration not stated)	> 100	> 100	> 100	–	> 100	> 100	> 100	> 100	> 100	> 100	> 100	> 100	> 100	> 100	> 100	> 100
CC1(C)OC(=O)C(C#N)=C1/C=C/c1coc2ccc(Cl)cc2c1=O	–	79.3	43.8	–	40.5	> 100	> 100	–	> 100	> 100	–	50.9	–	92.6	> 100	–
CC(=O)c1ccc2c(c1)CC1(C2)Cc2cc3c(cc2C1=O)CCC3 (configuration not stated)	72.2	81.3	76.3	89.5	40.6	31.2	83	32.9	59	32.4	90.4	46.2	32.4	–	48.8	–
CCOC(=O)C1C(c2ccc3c(c2)OCO3)c2c([nH][nH]c2=O)CC1(C)O (configuration not stated)	> 100	> 100	> 100	> 100	> 100	> 100	> 100	> 100	> 100	> 100	–	> 100	> 100	–	> 100	–
CC(=O)NC(CCCNC(=O)N(CCCl)N=O)C(=O)NCc1ccccc1 (configuration not stated)	–	> 100	> 100	–	–	> 100	–	–	> 100	> 100	> 100	> 100	–	> 100	> 100	–
O=c1[nH]cc(COCCCO)c(=O)[nH]1	–	> 100	> 100	–	> 100	> 100	> 100	–	> 100	> 100	> 100	> 100	–	> 100	> 100	–
COc1cc2c3c(c1)CCCN3CCC2	> 10	> 10	> 10	> 10	> 10	> 10	–	> 10	> 10	> 10	> 10	> 10	> 10	> 10	> 10	–
CC1(C)C=Cc2c(cc(O)c3c(=O)c4cc(Cl)ccc4[nH]c23)O1	7.12	> 10	> 10	–	8.11	> 10	6.16	8.58	> 10	8.75	> 10	9.75	> 10	–	> 10	8.06
c1ccc2c(c1)C1CCCCCC21N1CCOCC1 (configuration not stated)	–	> 100	> 100	–	> 100	> 100	> 100	–	> 100	> 100	> 100	> 100	–	> 100	> 100	–
COC(=O)c1onc(-c2c(OC)cc(OC)cc2OC)c1C(=O)OC	–	> 100	> 100	–	> 100	> 100	> 100	–	> 100	> 100	> 100	> 100	–	> 100	> 100	–
Cc1ccc(-c2nnc(-c3nn(-c4ccccc4)c4nc5ccccc5nc34)o2)cc1	–	27.3	41.6	–	40.9	> 100	> 100	–	41.7	> 100	20.5	39	–	30	> 100	–
COc1cc2c(c(OC)c1)/C(=C/Sc1ccccc1)C(=O)N(C(C)(C)C)C2	> 100	83.8	–	–	37.1	50.6	> 100	73	82.8	66.1	–	42.5	55.2	> 100	> 100	83
COc1cccc(NC(=O)CSc2nnc(-c3ccc(NC(C)=O)cc3)o2)c1	–	> 100	> 100	–	> 100	> 100	> 100	–	> 100	> 100	> 100	> 100	–	> 100	> 100	–
CCC(C=O)P1(=O)OC(C)(C)CN1C(C)(C)C (configuration not stated)	> 100	> 100	> 100	–	> 100	> 100	> 100	–	> 100	> 100	–	> 100	> 100	> 100	–	> 100
COc1ccc2c(c1)C(=O)C1CC(=O)CCC21 (configuration not stated)	–	> 100	> 100	–	> 100	> 100	> 100	–	> 100	> 100	–	> 100	–	> 100	> 100	–
O=S1(=O)OCCOS(=O)(=O)C1(F)Br	> 100	> 100	–	> 100	> 100	> 100	> 100	> 100	–	> 100	> 100	> 100	> 100	> 100	> 100	–
CCCCCCCC(=O)N[C@H](C(=O)N[C@H](C(=O)N(C)[C@H](C(=O)N1CCC[C@H]1C(=O)N(C)[C@H](C)C(=O)NCc1ccc(OC)cc1OC)C(C)C)C(C)C)C(C)C (Octanoyl-VV[NMeV]P[dNMeA]-X29)	58.7	> 100	> 100	33.4	30.8	22.7	> 100	–	32.8	> 100	46.1	42.3	28.9	27.5	> 68.2	> 61.2
